Experimental data as given in ChEMBL document CHEMBL1201862, “PubChem BioAssay data set” (2004).
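Grown in 96-well plates, cells were treated for 48 hours with each compound at five concentrations. Insufficient inhibition: endpoint recorded as highest concentration tested. GI50 is the concentration that inhibits growth by half.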 Calls of active or inactive are those of the source. Cut-off read from the data, not from the text of the source: active = GI50 up to about 1.1 µM and inactive = higher.

Columns and labels:
Experiment in all cases: NCI tumour cell line growth inhibition, 48 h
OVCAR-3 = system: OVCAR-3
NCI/ADR-RES = system: NCI/ADR-RES
HOP-92 = system: HOP-92
HT-29 = system: HT-29
RPMI-8226 = system: RPMI-8226
CCRF-CEM = system: CCRF-CEM
RXF 393 = system: RXF 393
U-251 = system: U-251
HL-60 = system: HL-60
BT-549 = system: BT-549
SN12C = system: SN12C
OVCAR-4 = system: OVCAR-4
SK-MEL-28 = system: SK-MEL-28
OVCAR-5 = system: OVCAR-5
EKVX = system: EKVX
SNB-75 = system: SNB-75
SW-620 = system: SW-620
SF-539 = system: SF-539
UO-31 = system: UO-31
LXFL 529 = system: LXFL 529

SMILES	GI50 (OVCAR-3)	GI50 (NCI/ADR-RES)	GI50 (HOP-92)	GI50 (HT-29)	GI50 (RPMI-8226)	GI50 (CCRF-CEM)	GI50 (RXF 393)	GI50 (U-251)	GI50 (HL-60)	GI50 (BT-549)	GI50 (SN12C)	GI50 (OVCAR-4)	GI50 (SK-MEL-28)	GI50 (OVCAR-5)	GI50 (EKVX)	GI50 (SNB-75)	GI50 (SW-620)	GI50 (SF-539)	GI50 (UO-31)	GI50 (LXFL 529)
Cc1nn(C(=O)c2ccncc2)c2c1C(c1ccc([N+](=O)[O-])cc1)SC(=N)N2 (centres undefined)	> 100 µM (inactive)	> 100 µM (inactive)	> 100 µM (inactive)	> 100 µM (inactive)	> 100 µM (inactive)	> 100 µM (inactive)	> 100 µM (inactive)	> 100 µM (inactive)	> 100 µM (inactive)	> 100 µM (inactive)	> 100 µM (inactive)	> 100 µM (inactive)	> 100 µM (inactive)	> 100 µM (inactive)	> 100 µM (inactive)	> 100 µM (inactive)	> 100 µM (inactive)	> 100 µM (inactive)	> 100 µM (inactive)	–
COc1ccc(C(c2c[nH]c3ccc(Br)cc23)c2c[nH]c3ccc(Br)cc23)cc1	0.217 µM (active)	0.357 µM (active)	0.213 µM (active)	0.294 µM (active)	0.175 µM (active)	0.138 µM (active)	0.278 µM (active)	0.22 µM (active)	0.0828 µM (active)	1.51 µM (inactive)	0.31 µM (active)	0.267 µM (active)	0.303 µM (active)	0.385 µM (active)	0.38 µM (active)	0.352 µM (active)	0.29 µM (active)	0.51 µM (active)	0.394 µM (active)	–
COc1ccc(OC)c([N+](=O)[O-])c1-c1nc2sc(Cl)cn2c1/C=N/N=C(N)N	16 µM (inactive)	> 100 µM (inactive)	10.1 µM (inactive)	15.5 µM (inactive)	26.9 µM (inactive)	30.9 µM (inactive)	20.1 µM (inactive)	24.8 µM (inactive)	11.2 µM (inactive)	16.8 µM (inactive)	17.3 µM (inactive)	12.2 µM (inactive)	13.9 µM (inactive)	25.9 µM (inactive)	25.6 µM (inactive)	10.1 µM (inactive)	20.2 µM (inactive)	22.9 µM (inactive)	16.7 µM (inactive)	–
CCCCc1c2c(nc3c1CC/C(=C\c1ccccc1)C3=O)CCCC2	3.25 µM (inactive)	–	–	2.22 µM (inactive)	2.88 µM (inactive)	3.43 µM (inactive)	2.6 µM (inactive)	3.49 µM (inactive)	2.79 µM (inactive)	–	3.18 µM (inactive)	–	3.37 µM (inactive)	–	12.2 µM (inactive)	11 µM (inactive)	1.99 µM (inactive)	2.29 µM (inactive)	6.05 µM (inactive)	1.74 µM (inactive)
O=[N+]([O-])c1ccc(C[P+]2(c3ccccc3)CCCCC2)cc1.[O-][Cl+3]([O-])([O-])[O-]	> 100 µM (inactive)	–	–	> 100 µM (inactive)	> 100 µM (inactive)	> 100 µM (inactive)	> 100 µM (inactive)	> 100 µM (inactive)	> 100 µM (inactive)	–	> 100 µM (inactive)	–	> 100 µM (inactive)	> 100 µM (inactive)	> 100 µM (inactive)	> 100 µM (inactive)	> 100 µM (inactive)	> 100 µM (inactive)	> 100 µM (inactive)	97.7 µM (inactive)
CCOC(=O)/C(C#N)=C/N(CC)/N=C/c1ccccc1	> 100 µM (inactive)	60.4 µM (inactive)	> 100 µM (inactive)	> 100 µM (inactive)	> 100 µM (inactive)	> 100 µM (inactive)	97.3 µM (inactive)	> 100 µM (inactive)	> 100 µM (inactive)	> 100 µM (inactive)	> 100 µM (inactive)	> 100 µM (inactive)	> 100 µM (inactive)	> 100 µM (inactive)	> 100 µM (inactive)	> 100 µM (inactive)	> 100 µM (inactive)	54.7 µM (inactive)	> 100 µM (inactive)	–
COc1cccc(CCNc2c(C#N)c3nc4ccccc4n3c3ccccc23)c1	3.87 µM (inactive)	0.333 µM (active)	29.6 µM (inactive)	0.337 µM (active)	0.426 µM (active)	0.736 µM (active)	0.607 µM (active)	0.721 µM (active)	0.34 µM (active)	0.618 µM (active)	3.19 µM (inactive)	2.79 µM (inactive)	1.22 µM (inactive)	7 µM (inactive)	2.09 µM (inactive)	0.404 µM (active)	0.51 µM (active)	0.548 µM (active)	2.81 µM (inactive)	–
CC(C)(C)C1=CC(=C2C=Cc3cc(O)ccc3O2)C=C(C(C)(C)C)C1=O	1.21 µM (inactive)	1.95 µM (inactive)	1.67 µM (inactive)	1.65 µM (inactive)	0.782 µM (active)	0.745 µM (active)	1.45 µM (inactive)	1.39 µM (inactive)	1.08 µM (active)	1.79 µM (inactive)	1.63 µM (inactive)	1.31 µM (inactive)	1.73 µM (inactive)	2.13 µM (inactive)	1.85 µM (inactive)	1.73 µM (inactive)	1.38 µM (inactive)	1.87 µM (inactive)	1.24 µM (inactive)	–
CCCCCCCCCCCCCC/C(C(=O)O)=C(\C)C(=O)O	> 100 µM (inactive)	97.7 µM (inactive)	> 100 µM (inactive)	> 100 µM (inactive)	40.4 µM (inactive)	> 100 µM (inactive)	> 100 µM (inactive)	> 100 µM (inactive)	58.3 µM (inactive)	> 100 µM (inactive)	> 100 µM (inactive)	> 100 µM (inactive)	> 100 µM (inactive)	> 100 µM (inactive)	> 100 µM (inactive)	> 100 µM (inactive)	> 100 µM (inactive)	> 100 µM (inactive)	> 100 µM (inactive)	–
O=[N+]([O-])c1ccc(/C=N/Nc2nc3ccccc3[nH]2)o1	11.1 µM (inactive)	24.6 µM (inactive)	17.4 µM (inactive)	19.5 µM (inactive)	2.85 µM (inactive)	8.39 µM (inactive)	14.6 µM (inactive)	34 µM (inactive)	1.31 µM (inactive)	15 µM (inactive)	15.7 µM (inactive)	8.69 µM (inactive)	8.91 µM (inactive)	23.1 µM (inactive)	22.8 µM (inactive)	17.7 µM (inactive)	10.8 µM (inactive)	4.09 µM (inactive)	18.7 µM (inactive)	–
COC(=O)C1OC(O[C@H]2CC[C@]3(C)[C@H]4CC=C5[C@@H]6CC(C)(C)CC[C@]6(C(=O)OC6OCC(O)C(O)C6OC6OC(C)C(OC7OCC(OC8OCC(O)C(O)C8O)C(O)C7O)C(O)C6O)[C@H](O)C[C@@]5(C)[C@]4(C)CC[C@H]3C2(C)C)C(O)C(O)C1O (some centres undefined)	6.82 µM (inactive)	6.41 µM (inactive)	1.91 µM (inactive)	2.71 µM (inactive)	5.5 µM (inactive)	17.3 µM (inactive)	11.4 µM (inactive)	5.83 µM (inactive)	3.21 µM (inactive)	2.04 µM (inactive)	1.8 µM (inactive)	9.31 µM (inactive)	2.08 µM (inactive)	2.77 µM (inactive)	2.32 µM (inactive)	3.44 µM (inactive)	5.14 µM (inactive)	11.4 µM (inactive)	1.75 µM (inactive)	–
CC1CC[C@@]2(OC1)O[C@H]1C[C@H]3[C@@H]4CC[C@H]5C[C@@H](OC6OC(CO)C(OC7OC(CO)C(OC8OC(CO)C(O)C(OC9OC(C)C(OC%10OC(C)C(O)C(O)C%10O)C(O)C9O)C8OC8OCC(O)C(O)C8O)C(O)C7O)C(O)C6O)CC[C@]5(C)[C@H]4CC(=O)[C@]3(C)[C@H]1[C@@H]2C (some centres undefined)	22.6 µM (inactive)	23.7 µM (inactive)	19 µM (inactive)	36 µM (inactive)	16.2 µM (inactive)	12.2 µM (inactive)	16.9 µM (inactive)	18.7 µM (inactive)	12.9 µM (inactive)	20.9 µM (inactive)	20.9 µM (inactive)	16.1 µM (inactive)	18.1 µM (inactive)	20.8 µM (inactive)	22.1 µM (inactive)	19.8 µM (inactive)	20.3 µM (inactive)	14.8 µM (inactive)	19.2 µM (inactive)	–
N=C(N)NS(=O)(=O)c1ccc(NNC(=O)c2cccc3c(O)c4ccccc4nc23)cc1	24.1 µM (inactive)	38.3 µM (inactive)	25.3 µM (inactive)	21.6 µM (inactive)	37.2 µM (inactive)	34.4 µM (inactive)	38.1 µM (inactive)	32.8 µM (inactive)	27 µM (inactive)	21.7 µM (inactive)	33.8 µM (inactive)	29.5 µM (inactive)	26.2 µM (inactive)	42.6 µM (inactive)	23.4 µM (inactive)	30.7 µM (inactive)	32.7 µM (inactive)	26.5 µM (inactive)	18.9 µM (inactive)	–
O=C(CC(Cc1ccccc1)c1ccc(Oc2ccccc2)cc1)Nc1cccc(Cl)c1 (centres undefined)	3.86 µM (inactive)	3.62 µM (inactive)	1.9 µM (inactive)	5.79 µM (inactive)	3.72 µM (inactive)	3.49 µM (inactive)	5.41 µM (inactive)	3.95 µM (inactive)	3.02 µM (inactive)	7.67 µM (inactive)	4.22 µM (inactive)	6.03 µM (inactive)	9.16 µM (inactive)	28.6 µM (inactive)	4.4 µM (inactive)	6.73 µM (inactive)	4.42 µM (inactive)	26.1 µM (inactive)	4.24 µM (inactive)	–
